Assay results published in patent US20240209028A1, “CNP COMPOUNDS” (priority 2022, published 2024).
Starred links: 1 amine or outer side, 2 acyl side, 3 side chain; linkers in the order of their positions; H or OH if unused. Positions of bridges follow the written chain, without caps; N, C: chain ends. Residues, ends and D or L forms follow the SMILES beside them. *: point of attachment. C18 diacid = O=C(O)CCCCCCCCCCCCCCCCC(=O)*; γGlu = O=C(O)[C@H](CCC(=O)[*:2])N[*:1]; AEEA = NCCOCCOCC(=O)O

Target: T1, human natriuretic peptide receptor 2 (hNPR2) (Homo sapiens, UniProt P20594)
T1 construct: expressed in transfected cells; host or cells: HEK293 (ATCC CRL-1573), clone 35, co-transfected with pGloSensor-42F
T1 sequence (P20594 23-1047): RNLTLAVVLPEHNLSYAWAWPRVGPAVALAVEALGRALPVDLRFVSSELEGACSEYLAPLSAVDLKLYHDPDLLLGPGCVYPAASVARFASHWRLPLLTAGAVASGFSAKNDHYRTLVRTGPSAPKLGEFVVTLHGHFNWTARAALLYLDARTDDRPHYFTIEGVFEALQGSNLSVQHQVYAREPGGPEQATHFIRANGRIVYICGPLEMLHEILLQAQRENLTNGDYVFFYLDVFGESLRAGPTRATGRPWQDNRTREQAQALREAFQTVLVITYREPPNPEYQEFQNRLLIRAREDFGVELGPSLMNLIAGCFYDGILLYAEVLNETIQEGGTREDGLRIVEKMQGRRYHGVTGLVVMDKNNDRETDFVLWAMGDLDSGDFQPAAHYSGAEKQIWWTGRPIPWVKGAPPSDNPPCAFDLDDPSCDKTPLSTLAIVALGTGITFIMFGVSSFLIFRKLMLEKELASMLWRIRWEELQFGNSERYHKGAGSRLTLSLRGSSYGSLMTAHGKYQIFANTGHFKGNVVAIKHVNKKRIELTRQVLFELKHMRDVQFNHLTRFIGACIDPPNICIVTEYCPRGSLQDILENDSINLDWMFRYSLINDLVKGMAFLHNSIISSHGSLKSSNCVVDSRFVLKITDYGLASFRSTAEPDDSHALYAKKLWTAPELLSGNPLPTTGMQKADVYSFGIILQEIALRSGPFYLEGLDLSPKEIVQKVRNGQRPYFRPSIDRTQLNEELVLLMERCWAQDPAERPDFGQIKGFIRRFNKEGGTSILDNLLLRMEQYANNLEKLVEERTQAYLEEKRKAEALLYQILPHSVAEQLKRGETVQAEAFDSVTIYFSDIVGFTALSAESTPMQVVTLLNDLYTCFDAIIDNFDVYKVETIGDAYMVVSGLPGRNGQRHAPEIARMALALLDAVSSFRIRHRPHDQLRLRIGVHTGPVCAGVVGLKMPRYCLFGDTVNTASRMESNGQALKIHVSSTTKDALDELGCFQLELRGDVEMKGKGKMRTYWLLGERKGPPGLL
Experiment: In vitro hNPR2 activity assay (cGMP GloSensor reporter, HEK293)
Assay type: cell-based
Settings: for hNPR2 0% HSA. [EC50% rel CNP]: potency relative to CNP22 (0065); for EC50: 0% HSA, HEK293-hNPR2/GloSensor cells
Outline: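 Potency is the EC50 from a four-parameter logistic fit, also expressed relative to the in-plate CNP22 control (×100), with at least two replicates. Compounds (ten concentrations, […], HSA-free diluent with 1% OVA, 0.01% Tween20) were incubated 30 min at 37 °C on HEK293 cells co-expressing hNPR2 and a GloSensor cGMP luciferase. Luminescence detected with Bright-Glo.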

Compound: CC[C@H](C)[C@@H]1NC(=O)[C@H](CCCNC(=N)N)NC(=O)[C@H](CC(=O)O)NC(=O)[C@H](CC(C)C)NC(=O)[C@@H]2CCCN2C(=O)[C@H](CC(C)C)NC(=O)CNC(=O)[C@H](Cc2ccccc2)NC(=O)[C@@H](NC(=O)CNC(=O)[C@H](CCC(N)=O)NC(=O)[C@H](CO)NC(=O)[C@H](CO)NC(=O)CNC(=O)[C@H](CCCCN)NC(=O)[C@H](CCCCN)NC(=O)[C@H](CCC(N)=O)NC(=O)[C@H](C)NC(=O)CNC(=O)[C@H](CCCCN)NC(=O)[C@H](Cc2ccc(O)cc2)NC(=O)[C@H](Cc2c[nH]cn2)NC(=O)[C@H](CCCNC(=N)N)NC(=O)[C@H](C)NC(=O)[C@H](CCC(N)=O)NC(=O)[C@@H]2CCCN2C(=O)[C@H](Cc2c[nH]cn2)NC(=O)[C@H](CCC(=O)O)NC(=O)[C@H](CCC(N)=O)NC(=O)COCCOCCNC(=O)COCCOCCNC(=O)CC[C@H](NC(=O)CC[C@H](NC(=O)CC[C@H](NC(=O)CC[C@H](NC(=O)CCCCCCCCCCCCCCCCC(=O)O)C(=O)O)C(=O)O)C(=O)O)C(=O)O)CSSC[C@@H](C(=O)O)NC(=O)CNC(=O)[C@H](CC(C)C)NC(=O)CNC(=O)[C@H](CO)NC(=O)[C@H](CC(C)C)NC(=O)[C@H](CO)NC(=O)CNC1=O [compound 1398] ({C18 diacid-γGlu-γGlu-γGlu-γGlu-AEEA-AEEA}-QEHPQARHYKGAQKKGSSQGCFGLPLDRIGSLSGLGC-OH; disulfide 21-37)
- hNPR2 0% HSA. [EC50% rel CNP]: 55.6%

Compound: CC[C@H](C)[C@@H]1NC(=O)[C@H](CCCNC(=N)N)NC(=O)[C@H](CC(=O)O)NC(=O)[C@H](CC(C)C)NC(=O)[C@@H]2CCCN2C(=O)[C@H](CC(C)C)NC(=O)CNC(=O)[C@H](Cc2ccccc2)NC(=O)[C@@H](NC(=O)CNC(=O)[C@H](CCCCN)NC(=O)[C@H](CO)NC(=O)[C@@H](NC(=O)CNC(=O)[C@@H](NC(=O)[C@H](CCCCN)NC(=O)[C@H](CCC(N)=O)NC(=O)[C@H](C)NC(=O)CNC(=O)[C@H](Cc2c[nH]cn2)NC(=O)[C@H](Cc2ccc(O)cc2)NC(=O)[C@H](CCCCN)NC(=O)[C@H](CCCNC(=N)N)NC(=O)[C@H](C)NC(=O)COCCOCCNC(=O)COCCOCCNC(=O)CC[C@H](NC(=O)CC[C@H](NC(=O)CC[C@H](NC(=O)CCCCCCCCCCCCCCCCC(=O)O)C(=O)O)C(=O)O)C(=O)O)[C@@H](C)O)C(C)C)CSSC[C@@H](C(=O)O)NC(=O)CNC(=O)[C@H](CC(C)C)NC(=O)CNC(=O)[C@H](CO)NC(=O)[C@H](CC(C)C)NC(=O)[C@H](CO)NC(=O)CNC1=O [compound 1423] ({C18 diacid-γGlu-γGlu-γGlu-AEEA-AEEA}-ARKYHGAQKTGVSKGCFGLPLDRIGSLSGLGC-OH; disulfide 16-32)
- hNPR2 0% HSA. [EC50% rel CNP]: 37.7%

Compound: CC[C@H](C)[C@@H]1NC(=O)[C@H](CCCNC(=N)N)NC(=O)[C@H](CC(=O)O)NC(=O)[C@H](CC(C)C)NC(=O)[C@@H]2CCCN2C(=O)[C@H](CC(C)C)NC(=O)CNC(=O)[C@H](Cc2ccccc2)NC(=O)[C@@H](NC(=O)CNC(=O)[C@H](CCC(N)=O)NC(=O)[C@H](CO)NC(=O)[C@H](CO)NC(=O)CNC(=O)[C@H](CCCCN)NC(=O)[C@H](CCCCN)NC(=O)[C@H](CCC(N)=O)NC(=O)[C@H](C)NC(=O)CNC(=O)[C@@H]2CCCN2C(=O)[C@H](C)NC(=O)[C@H](CCC(N)=O)NC(=O)CNC(=O)[C@@H]2CCCN2C(=O)[C@H](C)NC(=O)[C@H](CCC(N)=O)NC(=O)CNC(=O)COCCOCCNC(=O)COCCOCCNC(=O)CC[C@H](NC(=O)CCCCCCCCCCCCCCCCC(=O)O)C(=O)O)CSSC[C@@H](C(=O)O)NC(=O)CNC(=O)[C@H](CC(C)C)NC(=O)CNC(=O)[C@H](CO)NC(=O)[C@H](CC(C)C)NC(=O)[C@H](CO)NC(=O)CNC1=O [compound 1458] ({C18 diacid-γGlu-AEEA-AEEA}-GQAPGQAPGAQKKGSSQGCFGLPLDRIGSLSGLGC-OH; disulfide 19-35)
- hNPR2 0% HSA. [EC50% rel CNP]: 93.6%

Compound: CC[C@H](C)[C@@H]1NC(=O)[C@H](CCCNC(=N)N)NC(=O)[C@H](CC(=O)O)NC(=O)[C@H](CC(C)C)NC(=O)[C@@H]2CCCN2C(=O)[C@H](CC(C)C)NC(=O)CNC(=O)[C@H](Cc2ccccc2)NC(=O)[C@@H](NC(=O)CNC(=O)[C@H](CO)NC(=O)[C@H](CO)NC(=O)[C@H](CC(C)C)NC(=O)CNC(=O)[C@H](CCCCN)NC(=O)[C@H](CCCCN)NC(=O)[C@H](CCC(N)=O)NC(=O)[C@H](C)NC(=O)CNC(=O)[C@H](CCCCN)NC(=O)[C@H](Cc2ccc(O)cc2)NC(=O)COCCOCCNC(=O)COCCOCCNC(=O)COCCOCCNC(=O)CC[C@H](NC(=O)CCCCCCCCCCCCCCCCC(=O)O)C(=O)O)CSSC[C@@H](C(=O)O)NC(=O)CNC(=O)[C@H](CC(C)C)NC(=O)CNC(=O)[C@H](CO)NC(=O)[C@H](CC(C)C)NC(=O)[C@H](CO)NC(=O)CNC1=O [compound 1355] ({C18 diacid-γGlu-AEEA-AEEA-AEEA}-YKGAQKKGLSSGCFGLPLDRIGSLSGLGC-OH; disulfide 13-29)
- hNPR2 0% HSA. [EC50% rel CNP]: 28.2%

Compound: CC[C@H](C)[C@@H]1NC(=O)[C@H](CCCNC(=N)N)NC(=O)[C@H](CC(=O)O)NC(=O)[C@H](CC(C)C)NC(=O)[C@@H]2CCCN2C(=O)[C@H](CC(C)C)NC(=O)CNC(=O)[C@H](Cc2ccccc2)NC(=O)[C@@H](NC(=O)CNC(=O)[C@H](CCC(N)=O)NC(=O)[C@H](CO)NC(=O)[C@H](CC(C)C)NC(=O)CNC(=O)[C@H](CCCCN)NC(=O)[C@H](CCCCN)NC(=O)[C@H](CCC(N)=O)NC(=O)[C@H](C)NC(=O)CNC(=O)[C@H](CCCCN)NC(=O)[C@H](Cc2ccc(O)cc2)NC(=O)[C@H](CCCCN)NC(=O)[C@H](CCCNC(=N)N)NC(=O)[C@H](C)NC(=O)COCCOCCNC(=O)COCCOCCNC(=O)CC[C@H](NC(=O)CC[C@H](NC(=O)CC[C@H](NC(=O)CC[C@H](NC(=O)CCCCCCCCCCCCCCCCC(=O)O)C(=O)O)C(=O)O)C(=O)O)C(=O)O)CSSC[C@@H](C(=O)O)NC(=O)CNC(=O)[C@H](CC(C)C)NC(=O)CNC(=O)[C@H](CO)NC(=O)[C@H](CC(C)C)NC(=O)[C@H](CO)NC(=O)CNC1=O [compound 1456] ({C18 diacid-γGlu-γGlu-γGlu-γGlu-AEEA-AEEA}-ARKYKGAQKKGLSQGCFGLPLDRIGSLSGLGC-OH; disulfide 16-32)
- hNPR2 0% HSA. [EC50% rel CNP]: 50.4%

Compound: CC[C@H](C)[C@@H]1NC(=O)[C@H](CCCNC(=N)N)NC(=O)[C@H](CCC(=O)O)NC(=O)[C@H](CC(C)C)NC(=O)[C@H](CCCCN)NC(=O)[C@H](CC(C)C)NC(=O)CNC(=O)[C@H](Cc2ccccc2)NC(=O)[C@@H](NC(=O)CNC(=O)[C@H](CCC(N)=O)NC(=O)[C@H](CO)NC(=O)[C@H](CC(C)C)NC(=O)CNC(=O)[C@H](Cc2c[nH]cn2)NC(=O)[C@H](Cc2c[nH]cn2)NC(=O)[C@H](CCC(N)=O)NC(=O)[C@H](C)NC(=O)CNC(=O)[C@H](CCCCN)NC(=O)[C@H](Cc2ccc(O)cc2)NC(=O)COCCOCCNC(=O)COCCOCCNC(=O)CC[C@H](NC(=O)CC[C@H](NC(=O)CCCCCCCCCCCCCCCCC(=O)O)C(=O)O)C(=O)O)CSSC[C@@H](C(=O)O)NC(=O)CNC(=O)[C@H](CC(C)C)NC(=O)CNC(=O)[C@H](CO)NC(=O)[C@H](CC(C)C)NC(=O)[C@H](CO)NC(=O)CNC1=O [compound 1324] ({C18 diacid-γGlu-γGlu-AEEA-AEEA}-YKGAQHHGLSQGCFGLKLERIGSLSGLGC-OH; disulfide 13-29)
- EC50: 5.51 nM
- hNPR2 0% HSA. [EC50% rel CNP]: 1.6%

Compound: {C18 diacid-γGlu-AEEA-AEEA}-GQAPGQAPGQAPGQAPGQAPGLSKGCFGLKLDRIGSMSGLGC-OH (disulfide 26-42) [compound 0230]
- hNPR2 0% HSA. [EC50% rel CNP]: 0.4%

Compound: CC[C@H](C)[C@@H]1NC(=O)[C@H](CCCNC(=N)N)NC(=O)[C@H](CC(=O)O)NC(=O)[C@H](CC(C)C)NC(=O)[C@H](CCCCN)NC(=O)[C@H](CC(C)C)NC(=O)CNC(=O)[C@H](Cc2ccccc2)NC(=O)[C@@H](NC(=O)CNC(=O)[C@H](CCCCN)NC(=O)[C@H](CO)NC(=O)[C@H](CC(C)C)NC(=O)CNC(=O)[C@H](Cc2c[nH]cn2)NC(=O)[C@H](Cc2c[nH]cn2)NC(=O)[C@H](CCC(N)=O)NC(=O)[C@H](C)NC(=O)CNC(=O)[C@H](Cc2c[nH]cn2)NC(=O)[C@H](Cc2ccc(O)cc2)NC(=O)COCCOCCNC(=O)COCCOCCNC(=O)CC[C@H](NC(=O)CCCCCCCCCCCCCCCCC(=O)O)C(=O)O)CSSC[C@@H](C(=O)O)NC(=O)CNC(=O)[C@H](CC(C)C)NC(=O)CNC(=O)[C@H](CO)NC(=O)[C@H](CC(C)C)NC(=O)[C@H](CO)NC(=O)CNC1=O [compound 1345] ({C18 diacid-γGlu-AEEA-AEEA}-YHGAQHHGLSKGCFGLKLDRIGSLSGLGC-OH; disulfide 13-29)
- EC50: 0.38 nM
- hNPR2 0% HSA. [EC50% rel CNP]: 21.1%
